These results are taken from US8841290B2, “Substituted tetrahydronaphthalenes, method for the production thereof, and use thereof as drugs” (Sanofi, priority 2009, dated 2014).

Series [1] in a line: nephelometric (kinetic) solubility determination, phosphate buffer pH 7.4. The conditions noted are these: for solubility kinetic: aqueous buffer, kinetic from dmso stock, nephelometric, Table 7; for pH 7.4 (solubility): nephelometry, Table 8, reference compounds versus inventive examples. Format: physicochemical. The method, then: A DMSO solution of the test compound (2.5 mM; 0.5 μl) is pipetted into 200 μl of an aqueous test solution (e.g. phosphate-buffered saline, 10×, 1M, Sigma, adjusted to 10 mM, pH 7.4) in a 96-well microtiter plate, and the turbidity is measured at the resulting theoretical concentration for the test compound of 6.25 μM using a nephelometer (e.g. Nephelostar Galaxy, BMG Labtech). The concentration of the test compound in the aqueous test solution is then raised to a theoretical 12.5 μM by adding further DMSO solution (2.5 mM; 0.5 μl), and the turbidity measurement is repeated. Further additions of DMSO solutions (1 μl, 2.5 mM; 0.5 μl, 10 mM; then 9×1 μl, 10 mM resulting in theoretical concentrations of 25 μM, 50 μM, 100 μM, 150 μM, 200 μM, 250 μM, 300 μM, 350 μM, 400 μM, 450 μM and 500 μM) with turbidity measurement in between complete the measurement process.
Evaluation: The turbidity values from the nephelometer are plotted against the theoretical concentration of the test compound in the aqueous test solution. As soon as a significant turbidity is detected (e.g. 5 times above the control value of the aqueous test solution) at a theoretical concentration, the level of concentration below this is stated to be the solubility limit of the test compound in the test solution. Thus, the maximum possible measurement range emerges as values<6.25 μM, 6.25-500 μM and >500 μM.

The target in a further series is T1, human MCH receptor (Homo sapiens, UniProt Q99705).
T1 construct: expressed in transfected cells
Briefly: calcium mobilization assay (FLIPR), functional IC50 of MCH1R antagonists. Format: cell-based. An excerpt: A difference from the reference was, however, the use of the plasmid pEAK8 from EDGE Biosystems (USA) for the construction of the expression vector. The host used for the transfection was a transformed HEK cell line named “PEAK Stable Cells” (likewise from EDGE Biosystems). Functional measurements of the cellular calcium flux after addition of agonist (MCH) in the presence of ligand of the invention took place with the aid of the FLIPR apparatus from Molecular Devices (USA), using protocols of the apparatus manufacturer.
For orientation: Calcium assays in cells follow changes in intracellular calcium, usually with a dye or a luminescent sensor.

The mark [2] stands for this setting: recombinant HEK293 cell line expressing the human MCH receptor, calcium flux after addition of agonist (MCH), read-out: IC50.

The structures appear in SMILES notation. ≈ marks a conversion by molar mass, not a printed value. Like-named read-outs stand apart in the source and are kept apart here.

T1 sequence (Q99705 whole entry): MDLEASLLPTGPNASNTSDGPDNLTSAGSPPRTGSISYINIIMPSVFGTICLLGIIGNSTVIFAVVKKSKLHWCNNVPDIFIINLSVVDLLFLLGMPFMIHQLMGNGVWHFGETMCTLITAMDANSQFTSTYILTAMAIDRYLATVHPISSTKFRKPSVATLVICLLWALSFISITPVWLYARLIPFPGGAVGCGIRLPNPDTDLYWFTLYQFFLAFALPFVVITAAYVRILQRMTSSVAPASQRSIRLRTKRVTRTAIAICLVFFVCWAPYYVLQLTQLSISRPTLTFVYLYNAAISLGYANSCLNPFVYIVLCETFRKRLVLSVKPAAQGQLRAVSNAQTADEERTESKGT

As usually defined, the solubility (kinetic) is solubility judged after dilution from a stock solution rather than from solid. Broadly, the IC50 is the concentration needed to halve the response being measured. `CN(C(=O)c1ccc(OCC2CC2)cc1)[C@H]1CCc2cc(CNCC3CC3)ccc2C1` [Example 7-08] came in with a kinetic solubility in series [1] of more than 0.266 mg/mL. Besides, the IC50 on human MCH receptor (setting [2]) came out at 0.42 µM.
Compound `CCN(CC)Cc1ccc2c(c1)CC[C@H](N(C)C(=O)c1ccc(OCC3CC3)cc1)C2` [Example 7-18] gave a kinetic solubility in series [1] of more than 0.267 mg/mL. The IC50 on human MCH receptor (setting [2]) stood at 0.668 µM.
`O=C(N[C@H]1CCc2cc(CN3CCCCCC3)ccc2C1)c1ccc(COC2CCC2)cc1` [Example 6-06] registered a solubility (kinetic) in series [1] of 0.028 mg/mL (≈ 62.7 µM). Further, the IC50 at human MCH receptor (setting [2]) came out at 0.075 µM.
`CN(C(=O)c1ccc(OCC2CC2)cn1)[C@H]1CCc2cc(CNCC3CCCC3)ccc2C1` [Example 7-30] gave a kinetic solubility in series [1] of more than 0.281 mg/mL. Moreover, on human MCH receptor (setting [2]), the 50% inhibitory concentration (IC50) came to 0.156 µM.
For the compound `CCCCOc1ccc(C(=O)N[C@H]2CCc3cc(CN4CC5CCC4C5)ccc3C2)cc1` (stereo partly drawn) [Example 7-01], the solubility (kinetic) in series [1] is 0.082 mg/mL (≈ 190 µM). In addition, the IC50 at human MCH receptor (setting [2]) turned out to be 0.245 µM.
In series [1], `CN(C(=O)c1ccc(OCC2CC2)cc1)[C@H]1CCc2cc(CNCC3COCCO3)ccc2C1` (stereo partly drawn) [Example 1-09] registered a kinetic solubility of more than 0.289 mg/mL. Moreover, on human MCH receptor (setting [2]), the concentration for half-maximal inhibition (IC50) was 0.124 µM.
In turn, `O=C(N[C@H]1CCc2cc(CNCC3CCOCC3)ccc2C1)c1ccc(NC(=O)C(F)(F)F)cc1` [Example 2-04] displayed a solubility (kinetic) in series [1] of 0.015 mg/mL (≈ 30.6 µM). For the same compound, on human MCH receptor (setting [2]), the 50% inhibitory concentration (IC50) was determined as 3.69 µM.
On to `CCN(Cc1ccc2c(c1)CC[C@H](N(C)C(=O)c1ccc(OCC3CC3)cc1)C2)CC1CCOCC1` [Example 1-14], for which the kinetic solubility in series [1] was determined as 0.03 mg/mL (≈ 61.1 µM). In addition, the IC50 at human MCH receptor (setting [2]) came out at 0.507 µM.
For the compound `CC[C@H](O)COc1ccc(C(=O)N(C)[C@H]2CCc3cc(CN4CCCC4)ccc3C2)cc1` [Example 6-04], in series [1], the solubility (kinetic) is more than 0.275 mg/mL and the “pH 7.4 (solubility)” value is recorded as more than 0.275 mg/ml. For the same compound, the IC50 at human MCH receptor (setting [2]) was 1.2 µM.
In turn, `CN1CCC[C@@H]1c1ccc2c(c1)CC[C@H](N(C)C(=O)c1ccc(OCC3CC3)cc1)C2` [Example 5-01] showed a kinetic solubility in series [1] of more than 0.266 mg/mL. For the same compound, at human MCH receptor (setting [2]), the IC50 is 0.137 µM.
The like results for `CC(C)CCNCc1ccc2c(c1)CC[C@H](N(C)C(=O)c1ccc(OCC3CC3)cc1)C2` [Example 7-16] were, in that order, 0.137 mg/mL (≈ 315 µM) and 0.259 µM.
`COC1CCN(Cc2ccc3c(c2)CC[C@H](N(C)C(=O)c2ccc(OCC4CC4)cc2)C3)CC1` [Example 7-05] came in with a kinetic solubility in series [1] of more than 0.288 mg/mL. On human MCH receptor (setting [2]), the IC50 amounted to 0.625 µM.
`CN(C(=O)c1ccc(OCC2CC2)cn1)[C@H]1CCc2cc(C3CCCN3)ccc2C1` (stereo partly drawn) [Example 4-04, N-Methyl-N—((S)-6-pyrrolidin-2-yl-1,2,3,4-tetrahydronaphthalen-2-yl)-5-cyclopropylmethoxypyridine-2-carboxamide]: in series [1], the solubility (kinetic) is more than 0.041 mg/mL. For the same compound, at human MCH receptor (setting [2]), the IC50 came out at 0.703 µM.
In series [1], `CN(C(=O)c1ccc(OCC2CC2)cc1)[C@H]1CCc2cc(CN3CC4CCC3CC4)ccc2C1` [Example 7-03] came in with a kinetic solubility of more than 0.286 mg/mL. Also, on human MCH receptor (setting [2]), the half-maximal inhibitory concentration (IC50) came out at 1.37 µM.
Take `CC1CCC(CNCc2ccc3c(c2)CC[C@H](N(C)C(=O)c2ccc(OCC4CC4)cc2)C3)O1` (stereo partly drawn) [Example 1-12]: the kinetic solubility in series [1] is more than 0.288 mg/mL. The IC50 at human MCH receptor (setting [2]) is 0.165 µM.
Consider `CCCCOc1ccc(C(=O)N(C)[C@H]2CCc3cc(CN4CCCC4)ccc3C2)cc1` [Example 6-03], for which, in series [1], the kinetic solubility is more than 0.267 mg/mL and the “pH 7.4 (solubility)” value is more than 0.267 mg/ml. Moreover, on human MCH receptor (setting [2]), the IC50 turned out to be 0.327 µM.
In the case of `CCCCOc1ccc(C(=O)N(C)[C@H]2CCc3cc(CNCC4CCOCC4)ccc3C2)cc1` [Example 2-06], the solubility (kinetic) in series [1] turned out to be 0.203 mg/mL (≈ 437 µM). Moreover, on human MCH receptor (setting [2]), the IC50 turned out to be 0.146 µM.
Compound `CC(C)(C)CNCc1ccc2c(c1)CC[C@H](NC(=O)c1ccc(OCC3CC3)cc1)C2` [Example 7-13] came in with a solubility (kinetic) in series [1] of 0.007 mg/mL (≈ 16.6 µM). The IC50 on human MCH receptor (setting [2]) was 0.093 µM.
Consider `CN(C(=O)c1ccc(OCC2CC2)cc1)[C@H]1CCc2cc(CN3CCC(C(C)(C)O)CC3)ccc2C1` [Example 7-04], for which the kinetic solubility in series [1] was more than 0.302 mg/mL. For the same compound, the IC50 at human MCH receptor (setting [2]) was 0.141 µM.
`CN(C(=O)c1ccc(OCC2CC2)cc1)[C@H]1CCc2cc(CNCC3(C)CCOCC3)ccc2C1` [Example 1-08]: the solubility (kinetic) in series [1] is more than 0.295 mg/mL. The half-inhibitory concentration (IC50) on human MCH receptor (setting [2]) worked out at 0.126 µM.
The corresponding values for `CC1CCN(c2ccc(C(=O)N(C)[C@H]3CCc4cc(CNCC5CCOCC5)ccc4C3)cc2)CC1` [Example 2-03] are more than 0.302 mg/mL and 1.07 µM.
In the case of `CC(C)CCNCc1ccc2c(c1)CC[C@H](N(C)C(=O)c1ccc(OCC3CC3)cn1)C2` [Example 7-32], the solubility (kinetic) in series [1] is more than 0.275 mg/mL. The IC50 on human MCH receptor (setting [2]) stood at 0.145 µM.
In turn, `CN(C(=O)c1ccc(OCC2CC2)cn1)[C@H]1CCc2cc(CN3CC4CCC3CC4)ccc2C1` [Example 7-33] showed a solubility (kinetic) in series [1] of more than 0.287 mg/mL. Besides, at human MCH receptor (setting [2]), the IC50 turned out to be 1.1 µM.
The like results for `CN(C(=O)c1ccc(OCC2CC2)cc1)[C@H]1CCc2cc(CNCC3CCOCC3)ccc2C1` [Example 1-01, 4-Cyclopropylmethoxy-N-methyl-N—((S)-6-{[(tetrahydropyran-4-ylmethyl)amino]methyl}-1,2,3,4-tetrahydronaphthalen-2-yl)benzamide] were, in that order, 0.153 mg/mL (≈ 331 µM) and 0.121 µM.
In the case of `CN(C(=O)c1ccc(OCC2CC2)cc1)[C@H]1CCc2cc(C3CCCCN3)ccc2C1` (stereo partly drawn) [Example 4-03, 4-Cyclopropylmethoxy-N-methyl-N—((S)-6-piperidin-2-yl-1,2,3,4-tetrahydronaphthalen-2-yl)-benzamide], in series [1], the kinetic solubility amounted to 0.01 mg/mL (≈ 23.9 µM). Also, the IC50 at human MCH receptor (setting [2]) came out at 0.788 µM.
`O=C(N[C@H]1CCc2cc(CN3CCCCCC3)ccc2C1)c1ccc(NC(=O)C2CCCC2)cc1` [Example 6-07]: the solubility (kinetic) in series [1] was less than 0.004 mg/mL. Further, the half-maximal inhibitory concentration (IC50) on human MCH receptor is 0.332 µM.
In series [1], `CC(C)OCCNCc1ccc2c(c1)CC[C@H](N(C)C(=O)c1ccc(OCC3CC3)cc1)C2` [Example 7-26] returned a kinetic solubility of more than 0.282 mg/mL. Besides, at human MCH receptor (setting [2]), the IC50 came to 0.149 µM.
The corresponding values for `CN(C(=O)c1ccc(OCC2CC2)cn1)[C@H]1CCc2cc(CNCC(C)(C)C)ccc2C1` [Example 7-34] are more than 0.275 mg/mL and 0.375 µM.
In turn, `CCN1CCC[C@@H]1c1ccc2c(c1)CC[C@H](N(C)C(=O)c1ccc(OCC3CC3)cc1)C2` [Example 5-02] displayed a kinetic solubility in series [1] of more than 0.273 mg/mL. Further, on human MCH receptor (setting [2]), the IC50 was found to be 0.152 µM.
For `CCCCOc1ccc(C(=O)N[C@H]2CCc3cc(CN4CCCC4)ccc3C2)cc1` [Example 6-01], in series [1], the solubility (kinetic) was 0.013 mg/mL (≈ 32 µM) and the “pH 7.4 (solubility)” value stood at 0.013 mg/ml. Besides, the IC50 on human MCH receptor (setting [2]) was 0.127 µM.
`CN(C(=O)c1ccc(OCC2CC2)cc1)[C@H]1CCc2cc(CNCC3(C)COC3)ccc2C1` [Example 1-05]: in series [1], the kinetic solubility was more than 0.281 mg/mL. Moreover, the IC50 at human MCH receptor (setting [2]) is 0.125 µM.
In series [1], `CN(C(=O)c1ccc(OCC2CC2)cc1)[C@H]1CCc2cc(CNCC3(C)CCCO3)ccc2C1` (stereo partly drawn) [Example 1-11] came in with a kinetic solubility of more than 0.288 mg/mL. The IC50 on human MCH receptor (setting [2]) was 0.172 µM.
The corresponding values for `CN(C(=O)c1ccc(OCC2CC2)cc1)[C@H]1CCc2cc(CN3CCCC3)ccc2C1` [Example 6-05] are 0.199 mg/mL (≈ 475 µM) and 0.153 µM.
In series [1], `CN(C(=O)c1ccc(OCC2CC2)cn1)[C@H]1CCc2cc(CN3CCC(C)(C)CC3)ccc2C1` [Example 7-28] showed a solubility (kinetic) of more than 0.288 mg/mL. The IC50 at human MCH receptor (setting [2]) turned out to be 0.152 µM.
`CN(C(=O)c1ccc(OCC2CC2)cc1)[C@H]1CCc2cc(CNCC(C)(C)C)ccc2C1` [Example 7-11] displayed a kinetic solubility in series [1] of more than 0.274 mg/mL. Besides, the IC50 on human MCH receptor (setting [2]) came out at 0.898 µM.
Regarding `CN(C(=O)c1ccc(OCC2CC2)cc1)[C@H]1CCc2cc(CNC3CCC3)ccc2C1` [Example 7-10], in series [1], the kinetic solubility is more than 0.266 mg/mL. Moreover, the IC50 at human MCH receptor (setting [2]) was determined as 1.1 µM.
